Reference: BindingDB's records for doi:10.1111/j.1747-0285.2007.00535.x (Abbott Laboratories, 2007)

Biological target: Heat shock protein HSP 90-alpha (Homo sapiens, UniProt P07900)
Test: FRET Assay
Settings: pH 7.5; 25 °C

Ki [nM]	SMILES
60	Nc1nc(Cl)cc(-c2ccc(Cl)cc2Cl)n1 [HSP90 Inhibitor, 5]
170	Cc1cc(-c2ccc(Cl)cc2Cl)nc(N)n1 [HSP90 Inhibitor, 4]
4000	Cc1cc(C=Cc2ccccc2/C=N/N2CCOC2=O)nc(N)n1 [HSP90 Inhibitor, 7]
